In US20250074902A1, “FUSED BICYCLIC HETEROARYL AMIDE COMPOUND AS PROTEIN AGGREGATION INHIBITOR” (SHANGHAI JINGXIN BIOMEDICAL CO., LTD., priority 2021, published 2025):

Tests used:
α-synuclein = molecular target: T1, α-synuclein (Homo sapiens, UniProt P37840); assay: Detection of the ability of compounds to inhibit α-synuclein self-aggregation by HPLC; assay type: biochemical; conditions: test compound 200 μg/mL, α-synuclein 250 μg/ml, 37° C., 9 days; HPLC peak area of α-synuclein multimers vs model group; read-out: inhibition rate (%)
T1 construct: purchased Sino Biological
Experimental: The test compound (for poorly soluble compounds, dissolve with an appropriate amount of DMSO first) and fresh α-synuclein monomers (purchased from Sino Biological) were added to pure water to a final protein concentration of 250 μg/ml, and the concentration of the test compound was 200 μg/mL, followed by incubation at 37° C. for 9 days. The peak area of α-synuclein multimers after incubation was detected by HPLC and the inhibition rate was calculated. […] Inhibition rate=(peak area of model group−peak area of example group)/peak area of model group×100%.

[1] = Determination of half-life in C57BL/6 mice; assay type: in vivo; conditions: mouse, 2 mg/kg; male C57BL/6 mice, intravenous, 2 mpk, plasma
Experimental: C57BL/6 mice (male) were selected, and the compound of the present invention was intravenously administered at a dose of 2 mpk, About 0.03 mL of whole blood was collected from the mouse orbital venous plexus at 0 h before administration, 0.0833, 0.25, 0.5, 1, 2, 4, 6, 8 and 24 h after administration. The blood was placed in a centrifuge tube containing EDTA-K2 anticoagulant, and placed in crushed ice after collection. Centrifuge at 2000 g and 4° C. for 10 min within 0.5 hours, and 10 μL of plasma was quantitatively divided and placed in another clean centrifuge tube, placed in a −20° C. refrigerator, and the blood drug concentration was determined by LC-MS/MS method.

[2] = Determination of brain/plasma ratio; assay type: in vivo; conditions: mouse, male C57BL/6 mice, oral 10 mg/kg, ratio of average drug concentration in brain tissue to plasma
Experimental: Male C57BL/6 mice were used as research subjects, and brain perfusion technology was used to investigate the pharmacokinetic characteristics of the compound of the present invention transported through the blood-brain barrier, and the drug concentrations in the blood and brain tissue samples of mice after 0.25 h, 1 h, 4 h and 8 h were detected, and the ratio of the average drug concentrations in brain tissue and plasma was calculated.
Oral administration solution (1.000 mg·ml^−1) of the compound of the present invention was prepared:
Weigh 3.116 mg of the compound and place it in an EP tube, then add DMS 0.156 mL, Solutol 0.312 mL and ultrapure water 2.648 mL (the volume ratio of the three is 5:10:85, v:v:v), vortex ultrasound to fully dissolve it, and the final actual concentration is 1.000 mg·mL-1 of the clear administration solution.
C57BL/6 mice (male), purchased from Sibeifu (Beijing) Biotechnology Co., Ltd., experimental animal production license number: SCXK (Beijing) 2019-0010.
Fasting: Overnight fasting, no water withdrawal, feed provided 4 hours after medication.
Select qualified healthy C57BL/6 mice, 3 per group. After oral administration (10 mg/kg), about 150 μL of whole blood was collected from the orbital venous plexus of mice at 0.25 h, 1 h, 4 h and 8 h after medication and placed in a centrifuge tube containing EDTA-K2 anticoagulant. After administration, the mice were anesthetized about 1 minute before the scheduled time point, and brain perfusion was performed at 0.25 h, 1 h, 4 h and 8 h after administration. After perfusion, the mouse brain tissue samples were dissected with ophthalmic scissors and ophthalmic forceps, and the remaining blood on the tissue surface was immediately rinsed with ultrapure water within 5 min, wiped dry, weighed, and 4 times the volume of acetonitrile-water solution (10:90, v:v) was added and homogenized, and then the homogenate was placed in a −20° C. refrigerator for testing. The collected samples were placed in an ice bath during the entire experimental operation.
According to the time points specified in the above experimental protocol, about 150 μL of whole blood was collected from the orbital venous plexus of C57BL/6 mice after administration and placed in a 1.5 mL centrifuge tube containing EDTAN-K2. The collected whole blood was centrifuged at 2000 g, 4° C. for 10 min, and all plasma was divided and placed in another clean centrifuge tube, and then placed in a −20° C. refrigerator for testing.
Adjust the peristaltic pump device to ensure that it works normally, the liquid flows out smoothly and stably, and there is no air in the flow path. Anesthetize the mice after administration with a mixed anesthetic of 70% CO2 and 30% O2, After the animal is fully anesthetized, quickly open the chest cavity with surgical scissors to expose the heart. […] Turn on the peristaltic pump switch and perfuse for 2-5 minutes. The perfusion fluid is 100 U/1000 mL heparin sodium saline. After the perfusion is completed, use ophthalmic scissors and ophthalmic forceps to dissect the mouse brain tissue sample, immediately rinse the remaining blood on the tissue surface with ultrapure water within 5 minutes, wipe dry, weigh, add 4 times the volume of acetonitrile-water solution (10:90, v:v) and homogenize, and then place the homogenate in a −20° C. refrigerator for testing.
Calculate the ratio of the average drug concentration in brain tissue to that in plasma, i.e., the brain/plasma ratio.

| SMILES | inhibition at 200 µg/mL (α-synuclein) | half-life [1] | Kp at 4 h [2] |
| --- | --- | --- | --- |
| CCCCC(Cc1c[nH]c2ccccc12)NC(=O)c1cc2ccc(N3CCN(C)CC3)cc2s1 (racemic) [Example 1, N-(1-(1H-indol-3-yl)hexane-2-yl)-6-(4-methylpiperazin-1-yl)benzo[b]thiophene-2-carboxamide] | 98.3% | 2.21 h | 1.53 |
| CCCCC(Cc1c[nH]c2ccccc12)NC(=O)c1cnc(N2CCN(C)CC2)s1 (stereo not shown) [Comparative Example 1, reference compound] |  | 0.39 h | 0.35 |
| CCCCC(Cc1c[nH]c2ccccc12)NC(=O)c1cc2ccc(N3CCN(C4CC4)CC3)cc2s1 (stereo not shown) [Example 3, N-(1-(1H-indol-3-yl)hexane-2-yl)-6-(4-cyclopropylpiperazin-1-yl) benzo[b]-thiophene-2-carboxamide] | 95.3% | 1.46 h | 0.38 |
| CCCCC(Cc1c[nH]c2ccc(C)cc12)NC(=O)c1cc2ccc(N3CCN(C)CC3)cc2s1 (stereo not shown) [Example 30, N-(1-(5-methyl-1H-indole-3-yl)hexane-2-yl)-6-(4-methylpiperazine-1-yl) benzo[b]thiophene-2-carboxamide] | 71.4% |  |  |
| CCCCC(Cc1c[nH]c2ccncc12)NC(=O)c1cc2ccc(N3CCN(C)CC3)cc2s1 (stereo not shown) [Example 31, N-(1-(1H-pyrrole[3,2-c]pyridin-3-yl)hexane-2-yl)-6-(4-methylpiperazine-1-yl) benzo[b]thiophene-2-carboxamide] | 95.3% |  |  |
| CC(C)=CCC(Cc1c[nH]c2ccccc12)NC(=O)c1cc2ccc(N3CCN(C)CC3)cc2s1 (stereo not shown) [Example 32, N-(1-(1H-indol-3-yl)-5-methyl-4-hexene-2-yl)-6-(4-methylpiperazin-1-yl) benzo[b]thiophene-2-carboxamide] | 86.1% |  |  |
| CC(C)CCC(Cc1c[nH]c2ccccc12)NC(=O)c1cc2ccc(N3CCN(C)CC3)cc2s1 (stereo not shown) [Example 33, N-(1-(1H-indol-3-yl)-5-methylhexane-2-yl)-6-(4-methylpiperazin-1-yl) benzo[b]thiophene-2-carboxamide] | 93.4% |  |  |
| COCCC(Cc1c[nH]c2ccccc12)NC(=O)c1cc2ccc(N3CCN(C)CC3)cc2s1 (stereo not shown) [Example 34, N-[1-(CH-indol-3-yl)-4-methoxybutyl-2-yl]-6-(4-methylpiperazin-1-yl)-1-benzothiophene-2-carboxamide] | 97.5% |  |  |
| C/C=C\CC(Cc1c[nH]c2ccccc12)NC(=O)c1cc2ccc(N3CCN(C)CC3)cc2s1 (stereo not shown) [Example 35, (Z)—N-(1-(1H-indol-3-yl)-4-hexene-2-yl)-6-(4-methylpiperazin-1-yl) benzo[b]thiophene-2-carboxamide] | 85.4% |  |  |
| CCCCC(Cc1c[nH]c2ccccc12)NC(=O)c1cc2ccc(N3CCN(C)CC3)cc2n1C (stereo not shown) [Example 36, N-[1-(1H-indol-3-yl)hexyl-2-yl]-1-methyl-6-(4-methylpiperazin-1-yl)-1H-indole-2-carboxamide] | 85.3% |  |  |
| CC/C=C/C(Cc1c[nH]c2ccccc12)NC(=O)c1cc2ccc(N3CCN(C)CC3)cc2s1 (stereo not shown) [Example 37, (E)-N-(1-(1H-indol-3-yl)-3-hexene-2-yl)-6-(4-methylpiperazin-1-yl) benzo-[b]thiophene-2-carboxamide] | 86.7% |  |  |
| CN(C)CCC(Cc1c[nH]c2ccccc12)NC(=O)c1cc2ccc(N3CCN(C)CC3)cc2s1 (stereo not shown) [Example 38] | 78.3% |  |  |
| CCOCC(Cc1c[nH]c2ccccc12)NC(=O)c1cc2ccc(N3CCN(C)CC3)cc2s1 (stereo not shown) [Example 39, N-(1-ethoxy-3-(1H-indol-3-yl)propane-2-yl)-6-(4-methylpiperazin-1-yl) benzo[b]-thiophene-2-carboxamide] | 92.6% |  |  |
| CC(C)/C=C/C(Cc1c[nH]c2ccccc12)NC(=O)c1cc2ccc(N3CCN(C)CC3)cc2s1 (stereo not shown) [Example 40, (E)-N-(1-(1H-indol-3-yl)-S-methyl-3-hexene-2-yl)-6-(4-methylpiperazin-yl) benzo[b]-thiophene-2-carboxamide] | 76.8% |  |  |

Further lines, results first:

| inhibition at 200 µg/mL (α-synuclein) | half-life [1] | Kp at 4 h [2] | SMILES |
| --- | --- | --- | --- |
| 82.5% |  |  | CCOCCC(Cc1c[nH]c2ccccc12)NC(=O)c1cc2ccc(N3CCN(C)CC3)cc2s1 (stereo not shown) [Example 41, N-(4-ethoxy-1-(1H-indol-3-yl)butane-2-yl)-6-(4-methylpiperazin-1-yl) benzol[b]-thiophene-2-carboxamide] |
| 97.2% | 1.17 h | 2.05 | CCCC[C@@H](Cc1c[nH]c2ccccc12)NC(=O)c1cc2ccc(N3CCN(C)CC3)cc2s1 [Example 42, (S)—N-(1-(1H-indol-3-yl)hexane-2-yl)-6-(4-methylpiperazin-1-yl) benzo[b]thiophene-2-carboxamide] |
| 89.7% |  |  | CCCCC(Cc1c[nH]c2ccccc12)NC(=O)c1cc2ccc(N3CCN(S(=O)(=O)C4CC4)CC3)cc2s1 (stereo not shown) [Example 44, 6-[4-(Cyclopropanesulfonyl)piperazine-1-yl]-N-[1-(1H-indol-3-yl)hexane-2-yl]-1-benzothiophene-2-carboxamide] |
| 82.3% |  |  | CCCCC(Cc1c[nH]c2ccccc12)NC(=O)c1cc2ccc(N3CCN(S(C)(=O)=O)CC3)cc2s1 (stereo not shown) [Example 45, N-[1-(1H-indol-3-yl)hexane-2-yl]-6-(4-methylsulfonylpiperazine-1-yl)-benzothiophene-2-carboxamide] |
| 78.9% |  |  | CCCCC(Cc1c[nH]c2ccccc12)NC(=O)c1cc2ccc(N3CCN(C)C(=O)C3)cc2s1 (stereo not shown) [Example 46, N-[1-(1H-indol-3-yl)hexane-2-yl]-6-(4-methyl-3-oxopiperazin-1-yl)-benzothiophene-2-carboxamide] |
| 73.5% |  |  | CCCCC(Cc1c[nH]c2ccccc12)NC(=O)c1cc2ccc(N3CCN(C)CC3=O)cc2s1 (stereo not shown) [Example 47, N-[1-(1H-indol-3-yl)hexane-2-yl]-6-(4-methyl-2-oxypiperazin-1-yl)-1-benzothiophene-2-carboxamide] |
| 96.5% |  |  | CCCCC(Cc1c[nH]c2ccccc12)NC(=O)c1cc2ccc(N3CCC(C)(O)CC3)cc2s1 (stereo not shown) [Example 48, N-(1-(1H-indol-3-yl)hexane-2-yl)-6-(4-hydroxy-4-methylpiperidin-1-yl) benzo[b]-thiophene-2-carboxamide] |
| 92.9% |  |  | CCCCC(Cc1c[nH]c2ccccc12)NC(=O)c1cc2ccc(N3CC(C)(O)C3)cc2s1 (stereo not shown) [Example 49, N-(1-(1H-indol-3-yl)hexane-2-yl)-6-(3-hydroxy-3-methylazetidine-1-yl) benzo[b]-thiophene-2-carboxamide] |
| 95.7% |  |  | CCCCC(Cc1c[nH]c2ccccc12)NC(=O)c1cc2ccc(N3CC4(C3)CC(C)(O)C4)cc2s1 (stereo not shown) [Example 50, N-(1-(1H-indol-3-yl)hexane-2-yl)-6-(6-hydroxy-6-methyl-2-azaspiro [3.3]heptane-2-yl) benzo[b]thiophene-2-carboxamide] |
| 90.3% |  |  | CCCCC(Cc1c[nH]c2ccccc12)NC(=O)c1cc2ccc(N3CCC(C)(O)C3)cc2s1 (stereo not shown) [Example 51, N-(1-(1H-indol-3-yl)hexane-2-yl)-6-(3-hydroxy-3-methylpyrrolidin-1-yl) benzo[b]-thiophene-2-carboxamide] |
